Paper PMC6397271 (Scientific Reports, 2019)
≈ marks a conversion by molar mass, not a printed value. Where “and” joins values, the source holds several entries; their conditions need not be identical. Equal entries are not always repeated. Where two headings read alike, the source gives them in different places.

Tests used:
S. aureus MRSA 12673 = experiment: microbe, parasite or virus in culture; type: cell-based, Staphylococcus aureus
Summary of the method: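 MICs were measured by microbroth dilution against MRSA in cation-adjusted Mueller-Hinton broth and enterococci in Brain Heart Infusion broth. Viability was read with resazurin dye.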

S. aureus MRSA N315 = experiment: microbe, parasite or virus in culture; type: cell-based, Staphylococcus aureus
Summary of the method: (§1)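 Broth microdilution MIC, resazurin read-out, n=3. Media: cation-adjusted MH broth for MRSA (N315 reference; 6347 clinical h-VISA), BHI broth for enterococci. Growth aerobic, 37 °C, 24 h; inocula titrated by CFU/ml plating.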

[1] = tested on: S. aureus MRSA hetero-VISA 6347; experiment: microbe, parasite or virus in culture; type: cell-based, Staphylococcus aureus
Summary of the method: as §1

[2] = Brain concentration by LC/MS after iv administration; type: in vivo, BALB/c male mice; conditions: iv tail vein, 60 mg/kg, 2 hours after administration, brain homogenate supernatant, UHPLC-ESI/MS SIM; Mean ± SD, ten mice; 60 mg/kg
Experimental: In vivo experiments were performed on BALB/c male mice weighing between 20 and 30 g (the mouse model is widely used for estimation of drug BBB penetration). The animals (obtained from TAZD-CBU) were kept in a 12-hour day and night cycle at room temperature (20–22 °C), humidity 55–56% and fed with a standard diet and water ad libitum for at least 1 week before the experiment. Body temperature and weight were recorded on a regular daily schedule. It is confirmed that all procedures were carried out according to the guidelines outlined by the European Community Council Directive 2010/63/EEC, and they were approved by the local Ethical Committee Resolution 26/2014 (Bydgoszcz, Poland).
The experiments in this section also involved the mouse model described above. […] Similarly to what was stated previously, the mice were sacrificed 2 hours after the administration of the compounds. Their brains were removed immediately from the cranium and weighed. Next, they were homogenized mechanically in the ice and frozen at −80 °C.
Each homogenized mouse brain was centrifuged at 15 000 × g for 10 min. The supernatant was diluted with deionised water (Millipore), filtered (PTFE 0.22 μm filter) and analyzed by UHPLC-ESI/MS with the use of Shimadzu Nexera X2 UHPCL chromatograph and Shimadzu LCMS-2020 mass detector. […]

[3] = tested on: bacterial strain not named; experiment: Raw data of the MIC measurement (absorbance); type: cell-based; conditions: concentration marked (MIC) in raw absorbance data
Experimental: The strains were grown in Mueller-Hinton broth (MH cation-adjusted, Becton Dickinson) or Brain Heart Infusion broth (BHI, Becton Dickinson), respectively. The cultivation was carried out in an aerobic atmosphere at 37 °C for 24 hours and, afterwards, the bacterial cultures were diluted in geometric progression with a proper broth. Next, 100 µl of each dilution was inoculated in an agar plate and incubated at 37 °C for 24 h. The next procedures included determination of Colony Forming Units (CFU)/ml and minimal inhibitory concentration (MIC) of the compounds in question. The latter procedure was carried out according to the microbroth dilution technique using 96-well plates. The MICs were evaluated by using the metabolic assay based on the resazurin dye. The assay was performed in triplicates.

[4] = Staphylococcus aureus, MRSA, 24 h, microbroth dilution, 96-well, resazurin, 37 °C, 24 h, mean ± SD, at least three independent experiments in triplicates, read-out: MIC
[5] = Staphylococcus aureus, MRSA, raw MIC, first block, test a, repetition 1, read-out: MIC1a
[6] = Staphylococcus aureus, MRSA, raw MIC, first block, test a, repetition 2, read-out: MIC2a
[7] = Staphylococcus aureus, MRSA, raw MIC, first block, test a, repetition 3, read-out: MIC3a
[8] = Staphylococcus aureus, MRSA, raw MIC, first block, test b, repetition 1, read-out: MIC1b
[9] = Staphylococcus aureus, MRSA, raw MIC, first block, test b, repetition 2, read-out: MIC2b
[10] = Staphylococcus aureus, MRSA, raw MIC, first block, test b, repetition 3, read-out: MIC3b
[11] = Staphylococcus aureus, MRSA, raw MIC, test a, repetition 1, read-out: MIC1a
[12] = Staphylococcus aureus, MRSA, raw MIC, test a, repetition 2, read-out: MIC2a
[13] = Staphylococcus aureus, MRSA, raw MIC, test a, repetition 3, read-out: MIC3a
[14] = Staphylococcus aureus, MRSA, raw MIC, test b, repetition 1, read-out: MIC1b
[15] = Staphylococcus aureus, MRSA, raw MIC, test b, repetition 2, read-out: MIC2b
[16] = Staphylococcus aureus, MRSA, raw MIC, test b, repetition 3, read-out: MIC3b
[17] = microbroth dilution, 96-well, resazurin, 37 °C, 24 h, mean ± SD, at least three independent experiments in triplicates, listed as Van-HCl
[18] = same test as μM value, mean ± SD

## CN[C@H](CC(C)C)C(=O)N[C@H]1C(=O)N[C@@H](CC(N)=O)C(=O)N[C@H]2C(=O)N[C@H]3C(=O)N[C@H](C(=O)N[C@H](C(=O)O)c4cc(O)cc(O)c4-c4cc3ccc4O)[C@H](O)c3ccc(c(Cl)c3)Oc3cc2cc(c3O[C@@H]2O[C@H](CO)[C@@H](O)[C@H](O)[C@H]2O[C@H]2C[C@](C)(N)[C@H](O)[C@H](C)O2)Oc2ccc(cc2Cl)[C@H]1O [Van, vancomycin, reference compound]
S. aureus MRSA 12673; [4]
  MIC: 4.1 µM (≈ 5.94 µg/mL)
S. aureus MRSA 12673; [5]
  MIC: 4.07 µM (≈ 5.9 µg/mL)
S. aureus MRSA 12673; [6]
  MIC: 2.03 µM (≈ 2.94 µg/mL)
S. aureus MRSA 12673; [7]
  MIC: 4.07 µM (≈ 5.9 µg/mL)
S. aureus MRSA 12673; [8]
  MIC: 4.07 µM (≈ 5.9 µg/mL)
S. aureus MRSA 12673; [9]
  MIC: 2.03 µM (≈ 2.94 µg/mL)
S. aureus MRSA 12673; [10]
  MIC: 4.07 µM (≈ 5.9 µg/mL)
S. aureus MRSA 12673; [11]
  MIC: 6.05 µM (≈ 8.77 µg/mL)
S. aureus MRSA 12673; [12]
  MIC: 3.03 µM (≈ 4.39 µg/mL)
S. aureus MRSA 12673; [13]
  MIC: 6.05 µM (≈ 8.77 µg/mL)
S. aureus MRSA 12673; [14]
  MIC: 6.05 µM (≈ 8.77 µg/mL)
S. aureus MRSA 12673; [15]
  MIC: 3.03 µM (≈ 4.39 µg/mL)
S. aureus MRSA 12673; [16]
  MIC: 6.05 µM (≈ 8.77 µg/mL)
S. aureus MRSA 12673; [17]
  MIC: 4.1 ± 1.1 µM (≈ 5.94 µg/mL)
S. aureus MRSA 12673; [18]
  MIC in (μg/ml): 6.1 ± 1.6 µg/mL (≈ 4.21 µM)
S. aureus MRSA N315; [4]
  MIC: 2 µM (≈ 2.9 µg/mL)
S. aureus MRSA N315; [5]
  MIC: 2 µM (≈ 2.9 µg/mL)
S. aureus MRSA N315; [6]
  MIC: 1 µM (≈ 1.45 µg/mL)
S. aureus MRSA N315; [7]
  MIC: 2 µM (≈ 2.9 µg/mL)
S. aureus MRSA N315; [8]
  MIC: 2 µM (≈ 2.9 µg/mL)
S. aureus MRSA N315; [9]
  MIC: 2 µM (≈ 2.9 µg/mL)
S. aureus MRSA N315; [10]
  MIC: 1 µM (≈ 1.45 µg/mL)
S. aureus MRSA N315; [11]
  MIC: 2.97 µM (≈ 4.3 µg/mL)
S. aureus MRSA N315; [12]
  MIC: 1.49 µM (≈ 2.16 µg/mL)
S. aureus MRSA N315; [13]
  MIC: 2.97 µM (≈ 4.3 µg/mL)
S. aureus MRSA N315; [14]
  MIC: 2.97 µM (≈ 4.3 µg/mL)
S. aureus MRSA N315; [15]
  MIC: 2.97 µM (≈ 4.3 µg/mL)
S. aureus MRSA N315; [16]
  MIC: 1.49 µM (≈ 2.16 µg/mL)
S. aureus MRSA N315; [17]
  MIC: 2.0 ± 0.5 µM (≈ 2.9 µg/mL)
S. aureus MRSA N315; microbroth dilution, 96-well, resazurin, 37 °C, 24 h, mean ± SD, at least three independent experiments in triplicates, read-out: MIC
  MIC: 2 µM (≈ 2.9 µg/mL)
S. aureus MRSA N315; [18]
  MIC in (μg/ml): 3.0 ± 0.7 µg/mL (≈ 2.07 µM)
[1]; Staphylococcus aureus, 24 h, microbroth dilution, 96-well, resazurin, 37 °C, 24 h, mean ± SD, at least three independent experiments in triplicates, read-out: MIC
  MIC: 4.1 µM (≈ 5.94 µg/mL)
[1]; Staphylococcus aureus, raw MIC, first block, test a, repetition 1, read-out: MIC1a
  MIC: 4.07 µM (≈ 5.9 µg/mL)
[1]; Staphylococcus aureus, raw MIC, first block, test a, repetition 2, read-out: MIC2a
  MIC: 4.07 µM (≈ 5.9 µg/mL)
[1]; Staphylococcus aureus, raw MIC, first block, test a, repetition 3, read-out: MIC3a
  MIC: 4.07 µM (≈ 5.9 µg/mL)
[1]; Staphylococcus aureus, raw MIC, first block, test b, repetition 1, read-out: MIC1b
  MIC: 2.03 µM (≈ 2.94 µg/mL)
[1]; Staphylococcus aureus, raw MIC, first block, test b, repetition 2, read-out: MIC2b
  MIC: 4.07 µM (≈ 5.9 µg/mL)
[1]; Staphylococcus aureus, raw MIC, first block, test b, repetition 3, read-out: MIC3b
  MIC: 2.03 µM (≈ 2.94 µg/mL)
[1]; Staphylococcus aureus, raw MIC, test a, repetition 1, read-out: MIC1a
  MIC: 6.05 µM (≈ 8.77 µg/mL)
[1]; Staphylococcus aureus, raw MIC, test a, repetition 2, read-out: MIC2a
  MIC: 6.05 µM (≈ 8.77 µg/mL)
[1]; Staphylococcus aureus, raw MIC, test a, repetition 3, read-out: MIC3a
  MIC: 6.05 µM (≈ 8.77 µg/mL)
[1]; Staphylococcus aureus, raw MIC, test b, repetition 1, read-out: MIC1b
  MIC: 3.03 µM (≈ 4.39 µg/mL)
[1]; Staphylococcus aureus, raw MIC, test b, repetition 2, read-out: MIC2b
  MIC: 6.05 µM (≈ 8.77 µg/mL)
[1]; Staphylococcus aureus, raw MIC, test b, repetition 3, read-out: MIC3b
  MIC: 3.03 µM (≈ 4.39 µg/mL)
[1]; [17]
  MIC: 4.1 ± 1.1 µM (≈ 5.94 µg/mL)
[1]; [18]
  MIC in (μg/ml): 6.1 ± 1.6 µg/mL (≈ 4.21 µM)
[2]
  Brain concentrations of Van: 11 nM and 11 ± 2 nM
[3]
  MIC: 3.13 µM (≈ 4.54 µg/mL)
